Molecular target: T1, Na+/K+-ATPase
T1 construct: gene ATP1A1
Assay: in vitro enzymatic assay, inorganic phosphate release during ATP hydrolysis (Taussky-Shorr, […] nm)
Format: biochemical

C[C@H]1O[C@@H](O[C@H]2[C@@H](O)C[C@H](O[C@H]3[C@@H](O)C[C@H](O[C@H]4CC[C@@]5(C)[C@H](CC[C@@H]6[C@@H]5CC[C@]5(C)[C@@H](C7=CC(=O)OC7)CC[C@]65O)C4)O[C@@H]3C)O[C@@H]2C)C[C@H](O)[C@@H]1O [Digitoxin]
EC50: 780 nM
